This passage reports Kd and IC50 results from publication PMC3898987 (Bioorganic & Medicinal Chemistry, 2013).

In one assay the target is T1, 5-HT3A receptor D165K (Homo sapiens, UniProt P46098, D160K).
T1 sequence (P46098 24-478 D160K): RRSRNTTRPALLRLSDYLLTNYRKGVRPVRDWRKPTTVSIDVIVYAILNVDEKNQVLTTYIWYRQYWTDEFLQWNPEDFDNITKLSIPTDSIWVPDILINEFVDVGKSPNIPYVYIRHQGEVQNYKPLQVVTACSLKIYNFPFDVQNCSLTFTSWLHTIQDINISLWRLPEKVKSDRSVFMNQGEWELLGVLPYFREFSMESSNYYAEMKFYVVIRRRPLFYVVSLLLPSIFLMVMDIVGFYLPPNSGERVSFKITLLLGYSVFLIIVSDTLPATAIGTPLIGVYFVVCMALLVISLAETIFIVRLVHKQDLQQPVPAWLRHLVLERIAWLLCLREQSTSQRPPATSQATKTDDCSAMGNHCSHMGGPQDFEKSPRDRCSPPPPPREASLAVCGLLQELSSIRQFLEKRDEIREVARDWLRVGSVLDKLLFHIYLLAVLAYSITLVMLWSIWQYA
Kind of assay: radioligand saturation binding, transfected HEK293 membranes. Conditions: [3H]-palonosetron saturation, 5-HT3A D165K, 4 °C, 24 h.

Assay [1] has as its target T2, 5-HT3AB receptor, 5-HT3B subunit H73A (Homo sapiens, UniProt O95264+P46098, H66A).
T2 sequence (P46098 24-478): T1 sequence (P46098 24-478 D160K) with K137D
T2 sequence (O95264 22-441 H66A): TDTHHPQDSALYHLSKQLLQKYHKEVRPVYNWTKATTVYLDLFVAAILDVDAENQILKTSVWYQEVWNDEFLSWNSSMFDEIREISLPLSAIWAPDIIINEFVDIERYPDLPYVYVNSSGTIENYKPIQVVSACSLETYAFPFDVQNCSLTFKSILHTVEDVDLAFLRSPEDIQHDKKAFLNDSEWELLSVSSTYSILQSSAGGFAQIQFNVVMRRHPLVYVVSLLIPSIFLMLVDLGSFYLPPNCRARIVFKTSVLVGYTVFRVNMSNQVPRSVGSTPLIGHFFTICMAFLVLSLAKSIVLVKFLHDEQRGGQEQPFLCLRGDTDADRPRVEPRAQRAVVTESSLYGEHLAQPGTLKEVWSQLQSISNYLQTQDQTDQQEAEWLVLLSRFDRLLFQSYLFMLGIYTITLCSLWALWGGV
Kind of assay: cell-based.
Method: Human embryonic kidney (HEK) 293 cells were cultured on 90 mm tissue culture plates at 37 °C and 7% CO2 in a humidified atmosphere. They were grown in DMEM:F12 (Dulbecco’s Modified Eagle’s Medium/Nutrient Mix F12 (1:1)) with GlutaMAX I™ containing 10% fetal calf serum and passaged when confluent. […] For FlexStation assays, transfected cells were plated on 96-well plates and incubated 1–2 days before assay.
Fluorometric studies were undertaken using a FlexStation® (Molecular Devices, Sunnyvale, CA, USA) as previously described.[11]
Fluorescence was measured every 2 s for 200 s. […] Concentration–response and inhibition curves were obtained for each mutant, and the fluorescence values were normalized to the maximal response.

Assay [2] deals with T3, 5-HT3AB receptor, 5-HT3B subunit Y143A (Homo sapiens, UniProt O95264+P46098, Y136A).
T3 sequence (P46098 24-478): T1 sequence (P46098 24-478 D160K) with K137D
T3 sequence (O95264 22-441 Y136A): T2 sequence (O95264 22-441 H66A) with A45H, Y115A
Nature of the assay: radioligand saturation binding, transfected HEK293 membranes. Conditions: [3H]-palonosetron saturation, 5-HT3AB with 5-HT3B Y143A, 4 °C, 24 h.
Method: (§1) Human embryonic kidney (HEK) 293 cells were cultured on 90 mm tissue culture plates at 37 °C and 7% CO2 in a humidified atmosphere. They were grown in DMEM:F12 (Dulbecco’s Modified Eagle’s Medium/Nutrient Mix F12 (1:1)) with GlutaMAX I™ containing 10% fetal calf serum and passaged when confluent. For radioligand binding studies, cells in 90 mm dishes were transfected at 60–70% confluency using polyethyleneimine and incubated for 3–4 days before use. For FlexStation assays, transfected cells were plated on 96-well plates and incubated 1–2 days before assay. […]
(§2) Eight-point binding assays were performed to produce saturation binding curves. […] Radioactive counts were measured using a Beckman LS6000SC liquid scintillation counter (Fullerton, California, USA).
(§3) Data were analyzed by iterative curve fitting using GraphPad Prism v5 (San Diego, CA) according to the following equation: B=Bmax[L]^n/kdn+[L]^n where B is the amount of bound radioligand, Bmax is the maximum specific binding at equilibrium, [L] is the concentration of radioligand, Kd is the equilibrium dissociation constant of the radioligand, and n is the Hill coefficient.

A further assay deals with T4, 5-HT3A receptor F130A (Homo sapiens, UniProt P46098, F125A).
T4 sequence (P46098 24-478 F125A): T1 sequence (P46098 24-478 D160K) with F102A, K137D
The assay is described as above. Conditions: [3H]-palonosetron saturation, 5-HT3A F130A, 4 °C, 24 h.

Another assay concerns the target T5, 5-HT3A receptor D165A (Homo sapiens, UniProt P46098, D160A).
T5 sequence (P46098 24-478 D160A): T1 sequence (P46098 24-478 D160K) with K137A
Nature of the assay: cell-based.

The structures appear in SMILES notation. Where a chain is given by its changes, count along the chain named.

Method for 5-HT3A receptor D165K: as §1, §2, §3
Method for 5-HT3A receptor F130A: as §1, §2, §3

For the compound `O=C1c2cccc3c2[C@H](CCC3)CN1[C@@H]1CN2CCC1CC2` [Palonosetron], the values for the Kd (on 5-HT3A receptor D165K; in assay [2]; on 5-HT3A receptor F130A) were 0.36 ± 0.02 nM, 0.18 ± 0.04 nM and 0.67 ± 0.12 nM, respectively. The IC50 in assay [1] amounted to 0.97 ± 0.26 nM; against 5-HT3A receptor D165A it was 1.33 ± 0.45 nM.

By Kd is commonly meant the constant that tells how readily two partners part at equilibrium. What is called IC50 is the concentration needed to halve the response being measured.
